According to ChEMBL document CHEMBL1155189, “Bioactivity-guided isolation of cytotoxic constituents from stem-bark of Premna tomentosa” (Bioorg Med Chem Lett, 2009):
In brackets after ≈: the same amount, converted by molar mass.

Tests used:
Assay type in all cases: functional, cell-based; call rule not given here
HT-29 = assay: Cytotoxicity against human HT-29 cells after 48 hrs by MTT assay
MCF7 = assay: Cytotoxicity against human MCF7 cells after 48 hrs by MTT assay; conditions: MCF7, 48 h
HepG2 = assay: Cytotoxicity against human HepG2 cells after 48 hrs by MTT assay
A549 = assay: Cytotoxicity against human A549 cells after 48 hrs by MTT assay; conditions: A549, 48 h
A-431 = assay: Cytotoxicity against human A431 cells after 48 hrs by MTT assay
[1] = Homo sapiens, HT-29, 48 h, read-out: IC50
[2] = Homo sapiens, HepG2, 48 h, read-out: IC50

| Compound | IC50 (HT-29; [1]) [µg/mL] | IC50 (MCF7) [µg/mL] | IC50 (HepG2; [2]) [µg/mL] | IC50 (A549) [µg/mL] | IC50 (A-431) | IC50 (HT-29; ht-29) | IC50 (HepG2; hepg2) |
| --- | --- | --- | --- | --- | --- | --- | --- |
| CC(CO)c1cc2c(c(O)c1O)C[C@@]1(O)CCCC(C)(C)[C@@H]1CC2 (stereo not given in full) | 16.2 (≈ 48.5 µM) | 16 (≈ 47.7 µM) | 18.6 (≈ 55.7 µM) | 18.6 (≈ 55.7 µM) | Not Active |  |  |
| CC(CO)c1cc(O)c2c(c1)[C@@H](O)C[C@H]1C(C)(C)CCC[C@]1(O)C2 (stereo not given in full) | 14.6 (≈ 43.6 µM) | 15.8 (≈ 47.4 µM) | 34.4 (≈ 103 µM) | 21.4 (≈ 63.9 µM) | Not Active |  |  |
| CC(CO)c1cc(O)c2c(c1)CC[C@H]1C(C)(C)CCC[C@]1(O)C2 (stereo not given in full) |  | 80.8 (≈ 254 µM) |  | 43.6 (≈ 137 µM) | Not Active | Not Active | Not Active |
